Reference: PubChem BioAssay (NCI)
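Results reflect a 48-hour exposure of cells in 96-well plates to compound at five concentrations. Here, GI50 denotes the concentration required for 50% inhibition of growth. The concentration for full growth arrest is given as TGI.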

Columns and labels:
Experiment in all cases: NCI tumour cell line growth inhibition, 48 h
NCI-H226 lung = test system: NCI-H226 lung
ACHN renal = test system: ACHN renal
M14 melanoma = test system: M14 melanoma
DU-145 prostate = test system: DU-145 prostate
SF-539 CNS = test system: SF-539 CNS
HCT-15 colon = test system: HCT-15 colon
KM12 colon = test system: KM12 colon
NCI/ADR-RES ovarian = test system: NCI/ADR-RES ovarian
NCI-H460 lung = test system: NCI-H460 lung
RXF 393 renal = test system: RXF 393 renal

Structure (SMILES)	TGI (NCI-H226 lung) [µM]	TGI (ACHN renal) [µM]	TGI (M14 melanoma) [µM]	TGI (DU-145 prostate) [µM]	TGI (SF-539 CNS) [µM]	TGI (HCT-15 colon) [µM]	TGI (KM12 colon) [µM]	TGI (NCI/ADR-RES ovarian) [µM]	TGI (NCI-H460 lung) [µM]	TGI (RXF 393 renal) [µM]	GI50 (RXF 393 renal) [µM]
COc1cccc2c1OC1c3ccccc3OCC1(O)C2 (stereo unspecified)	> 100	> 100	> 100	> 100	> 100	> 100	> 100	> 100			
N/N=C(/N)SCCCCCCCCCCS/C(N)=N/N	83.1	67.4	> 100	> 100	> 100	27.5	67.3	58.2	32.7		
Oc1c(Cl)cc2cc1-c1cc(cc(Cl)c1O)CCc1c(cc(Cl)c(O)c1Cl)-c1cc(Cl)c(c(Cl)c1O)/C=C\2	22.5	29.7	15.6	16.1		17.4	15.1	30.8	13.1	> 50	
COc1c(C)c(C/C=C(\C)CCCC(C)CCCC(C)CCCC(C)C)c(OC)c2ccccc12 (stereo unspecified)		> 100	> 100	> 100	> 100	> 100	> 100	> 100	> 100	> 100	
COc1ccc(/C=C2\CCCc3ccccc3C2=O)cc1	2.98	> 100	22.2	1.74	5.11	> 33.1	17.6	> 100	> 100		
COC(=O)/C=C\n1nc(Br)c(=O)[nH]c1=O		> 100	> 100	> 100	> 100	> 100	> 100	> 100	> 100	> 100	
CCOC(=O)CCc1cn2cc(Br)nc(OC)c2n1	> 100		> 100	> 100	> 100	> 100	> 100	> 100	> 100	> 100	
O=C1c2ccncc2C(=O)c2c(O)ccc(O)c21	29.4	17.1	19.5		13.4	24.3	32.8		29.4	16.8	
O=C1CC(c2ccsc2)n2cccc21 (stereo unspecified)	> 100	> 100	> 100	> 100	> 100	> 100	> 100	> 100		> 100	
O=C1Nc2cccc(Cl)c2/C1=C\c1c(-c2ccccc2)nc2n1CCS2		32.3	45.2	44.9	36	83.1	52.1	> 100	40.7	42.5	
Cc1ccc(N2C(=O)C3CSCN3C2=O)cc1 (stereo unspecified)	> 100				> 100	> 100	> 100	> 100	> 100	> 100	> 100
O=c1cc(N2CCOCC2)n2c(ccc3ccccc32)n1	> 100	> 100	> 100		> 100	> 100	> 100	> 100		> 100	
CCC1=C(C[C@H]2NCCc3cc(OC)c(OC)cc32)C[C@H]2c3cc(OC)c(OC)cc3CCN2C1		0.28	0.069		0.148	1.02			0.134	0.0698	
Cc1cn(C2CC(COCc3ccccc3)N(CCO[Si](C)(C)C(C)(C)C)O2)c(=O)[nH]c1=O (stereo unspecified)		28.9	29.5	31	33.9		31.1	28.9	35.2	29	
C/C(=N\Nc1nc2ccccc2[nH]1)c1ncccn1		0.201	0.322	> 100	0.0543	> 100	> 46.9	0.426	> 100	> 32.5	
COC(=O)C1C(=O)CC(C)(O)C(C(=O)OC)C1c1ccc(N(C)C)cc1 (stereo unspecified)	> 100	> 100		> 100		> 100	> 100	> 100	> 100	> 100	
Cc1nc2ccc(Cl)cc2c2c1CCO2	> 100	> 100		> 100	> 100	> 100	> 100	> 100	> 100	71.3	
C/C(=C\Cc1ccc(F)cc1)CCCCCC/C(C)=C/Cc1ccc(F)cc1		24.8	45.6	27.8	31.8	34.1	5.61	31.9	17	42.1	
[N-]=[N+]=Nc1nc2ccccc2c(N=[N+]=[N-])c1Cl		> 100	> 100	> 100	> 100	> 100	> 100	> 100	> 100	> 100	
Cc1cc(S(=O)(=O)Nc2nc3cscc3c(=O)n2N)c(S)cc1Cl	48.5	> 100	> 100	> 100	> 100	> 100	> 100	73.4	> 100		
CC(C)(C)OC(=O)C(C#N)C(=O)c1ccc(C(=O)O)[nH]1 (stereo unspecified)	> 100	> 100	> 100	> 100	> 100	> 100	> 100	38.5	> 100		
C=CC(C)(C)/C=C/c1ccc(O)cc1		> 100	> 100	> 100	> 100	> 100	> 100	> 100	> 100	> 100	
O=Nc1c(-c2c(O)[nH]c3ccc(I)cc23)[nH]c2ccccc12		> 21.4	> 100	> 24.6	81.5	> 39.9		> 63.4	> 47.4	3.81	
CC(=O)CC(=O)N1CCSC1=S	> 10	> 10	> 10	> 10	> 10	> 10	> 10		> 10	> 10	
